Measured values as given in publication PMC3084843 (PLoS ONE, 2011).

Molecular target: T1, human Kir2.1 (Homo sapiens, UniProt P63252)
T1 construct: gene KCNJ2; tags kept
T1 sequence (P63252 1-427): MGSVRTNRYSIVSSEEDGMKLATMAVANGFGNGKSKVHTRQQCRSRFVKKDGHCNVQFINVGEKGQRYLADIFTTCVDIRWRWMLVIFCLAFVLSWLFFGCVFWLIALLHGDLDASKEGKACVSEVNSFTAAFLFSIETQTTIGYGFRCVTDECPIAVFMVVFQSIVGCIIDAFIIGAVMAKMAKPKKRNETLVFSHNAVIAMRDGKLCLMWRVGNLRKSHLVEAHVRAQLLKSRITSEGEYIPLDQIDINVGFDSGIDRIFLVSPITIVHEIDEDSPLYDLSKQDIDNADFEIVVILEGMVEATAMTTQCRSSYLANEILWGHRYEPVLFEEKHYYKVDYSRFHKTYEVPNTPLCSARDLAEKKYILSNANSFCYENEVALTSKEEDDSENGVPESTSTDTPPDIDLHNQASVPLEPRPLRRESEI
Assay: […]+ uptake into proteoliposomes
Assay type: biochemical

Q: How did the “% reduction of channel activity” value turn out when `CC(C)CCC[C@@H](C)[C@H]1CC[C@H]2[C@@H]3CC=C4C[C@@H](O)CC[C@]4(C)[C@H]3CC[C@]12C` [cholesterol] was run?
A: ~ 45%
